Experimental data published in PMC5845353, “The selective cathepsin K inhibitor MIV-711 attenuates joint pathology in experimental animal models of osteoarthritis” (Journal of Translational Medicine, 2018).

System: rabbits subjected to anterior cruciate ligament transection (ACLT)
Assay: Rabbit ACLT study, histomorphometry of bone, cartilage and osteophytes
Type: in vivo
Protocol: The femora and tibias were decalcified, embedded in paraffin, sectioned at 5-7 µm at two different levels separated by approximately 2 mm, and stained with safranin O and toluidine blue.
Both tibial plateaus and femoral condyles (i.e. four joint compartments) were also subjected to histomorphometric analysis of cartilage, subchondral bone, cancellous bone, and osteophytes. The measurements were made using OsteoMeasureXP version 3.3.0.2 as follows:
Uncalcified cartilage area was measured by tracing the articular surface (cartilage perimeter) and bone or calcified cartilage/uncalcified cartilage interface (cartilage boundary).
Cartilage width was measured by point to point measurement at intersections between a sampling grid with approximately 0.5 mm spacing and the cartilage boundary. The intercepts measured were orthogonal to the cartilage boundary and ended at the cartilage perimeter. At intersections where the cartilage width was zero due to erosion, a value of zero was recorded.
Subchondral bone width was measured by point to point measurement at intersections between a sampling grid with approximately 0.5 mm spacing and the cartilage boundary. The intercepts measured were orthogonal to the cartilage boundary and ended at the first marrow cavity encountered that had at least one dimension approximately equivalent to nearby trabecular thickness.
Osteophyte area was measured for abaxial osteophytes. On the femur, osteophytes associated with the condyles but not with the trochlear grooves were measured.
Bone area (including osteoid) and perimeter were measured in a 3.8 X 1.5 mm ROI centered approximately 1 mm below the bone/cartilage interface. This ROI was intended to be equivalent to the subchondral cancellous bone VOI measured by microCT. Bone volume (BV/TV), trabecular thickness (Tb.Th), trabecular number (Tb.N) and trabecular separation (Tb.Sp) were derived from these measurements using standard formulae.
Slides were evaluated in animal ID order, i.e. in random order with respect to treatment, so that the measurer was effectively blinded to treatment assignment.
Analysis was performed on all four condyles at two levels (Level 1 and 2) for each condyle:
Group 1) sham + vehicle; Group 2) ACLT + vehicle; Group 3) ACLT + MIV-711, 30 µmol/kg (low dose) and Group 4) ACLT + MIV-711, 100 µmol/kg (high dose).

[1] = Level 2, MFC, Group 3: ACLT + MIV-711, 30 µmol/kg (low dose)
[2] = Level 2, MFC, Group 4: ACLT + MIV-711, 100 µmol/kg (high dose)
[3] = Level 2, MTP, Group 3: ACLT + MIV-711, 30 µmol/kg (low dose)
[4] = Level 2, MTP, Group 4: ACLT + MIV-711, 100 µmol/kg (high dose)

C#C[C@@H]1CN(C(=O)[C@H](CC(C)C)NC(=O)c2ccc(-c3nc(N4CCN(C)CC4)sc3F)cc2)[C@@H]2C(=O)CO[C@H]12 [MIV-711]
Tb.Th, Median (Level 1 MFC, Group 4, ACLT + MIV-711 100 µmol/kg): 161.50 µm | BV/TV, Mean (Level 2, LFC, Group 3): 36.23% | BV/TV, Median (Level 2, LFC, Group 3): 35.15% | Cart.Ar, Mean (Level 2, LFC, Group 3): 1.54 mm2 | Cart.Ar, Median (Level 2, LFC, Group 3): 1.50 mm2 | Cart.Bd, Mean (Level 2, LFC, Group 3): 5.95 mm | Cart.Bd, Median (Level 2, LFC, Group 3): 5.45 mm | Cart.Pm, Mean (Level 2, LFC, Group 3): 6.68 mm | Cart.Pm, Median (Level 2, LFC, Group 3): 6.07 mm | Cart.Wi, Mean (Level 2, LFC, Group 3): 252.24 µm | Cart.Wi, Median (Level 2, LFC, Group 3): 265.00 µm | Ophte.Ar, Mean (Level 2, LFC, Group 3): 1.80 mm2 | Ophte.Ar, Median (Level 2, LFC, Group 3): 1.91 mm2 | SCB.Wi, Mean (Level 2, LFC, Group 3): 625.26 µm | SCB.Wi, Median (Level 2, LFC, Group 3): 686.73 µm | Tb.N, Mean (Level 2, LFC, Group 3): 2.86 1/mm | Tb.N, Median (Level 2, LFC, Group 3): 3.01 1/mm | Tb.Sp, Mean (Level 2, LFC, Group 3): 227.32 µm | Tb.Sp, Median (Level 2, LFC, Group 3): 224.93 µm | Tb.Th, Mean (Level 2, LFC, Group 3): 129.54 µm | Tb.Th, Median (Level 2, LFC, Group 3): 124.26 µm | BV/TV, Mean (Level 2, LFC, Group 4): 36.75% | BV/TV, Median (Level 2, LFC, Group 4): 38.04% | Cart.Ar, Mean (Level 2, LFC, Group 4): 1.69 mm2 | Cart.Ar, Median (Level 2, LFC, Group 4): 1.76 mm2 | Cart.Bd, Mean (Level 2, LFC, Group 4): 7.36 mm | Cart.Bd, Median (Level 2, LFC, Group 4): 7.45 mm | Cart.Pm, Mean (Level 2, LFC, Group 4): 8.13 mm | Cart.Pm, Median (Level 2, LFC, Group 4): 8.16 mm | Cart.Wi, Mean (Level 2, LFC, Group 4): 223.79 µm | Cart.Wi, Median (Level 2, LFC, Group 4): 238.09 µm | Ophte.Ar, Mean (Level 2, LFC, Group 4): 4.60 mm2 | Ophte.Ar, Median (Level 2, LFC, Group 4): 1.57 mm2 | SCB.Wi, Mean (Level 2, LFC, Group 4): 500.70 µm | SCB.Wi, Median (Level 2, LFC, Group 4): 462.81 µm | Tb.N, Mean (Level 2, LFC, Group 4): 3.05 1/mm | Tb.N, Median (Level 2, LFC, Group 4): 2.97 1/mm | Tb.Sp, Mean (Level 2, LFC, Group 4): 212.50 µm | Tb.Sp, Median (Level 2, LFC, Group 4): 210.44 µm | Tb.Th, Mean (Level 2, LFC, Group 4): 120.73 µm | Tb.Th, Median (Level 2, LFC, Group 4): 120.14 µm | BV/TV, Mean (Level 2, LTP, Group 3): 42.02% | BV/TV, Median (Level 2, LTP, Group 3): 40.17% | Cart.Ar, Mean (Level 2, LTP, Group 3): 0.88 mm2 | Cart.Ar, Median (Level 2, LTP, Group 3): 0.95 mm2 | Cart.Bd, Mean (Level 2, LTP, Group 3): 4.27 mm | Cart.Bd, Median (Level 2, LTP, Group 3): 4.41 mm | Cart.Pm, Mean (Level 2, LTP, Group 3): 4.26 mm | Cart.Pm, Median (Level 2, LTP, Group 3): 4.48 mm | Cart.Wi, Mean (Level 2, LTP, Group 3): 207.98 µm | Cart.Wi, Median (Level 2, LTP, Group 3): 203.75 µm | Ophte.Ar, Mean (Level 2, LTP, Group 3): 1.40 mm2 | Ophte.Ar, Median (Level 2, LTP, Group 3): 1.23 mm2 | SCB.Wi, Mean (Level 2, LTP, Group 3): 531.17 µm | SCB.Wi, Median (Level 2, LTP, Group 3): 547.82 µm | Tb.N, Mean (Level 2, LTP, Group 3): 2.93 1/mm | Tb.N, Median (Level 2, LTP, Group 3): 3.04 1/mm | Tb.Sp, Mean (Level 2, LTP, Group 3): 202.17 µm | Tb.Sp, Median (Level 2, LTP, Group 3): 206.70 µm | Tb.Th, Mean (Level 2, LTP, Group 3): 146.36 µm | Tb.Th, Median (Level 2, LTP, Group 3): 148.82 µm | BV/TV, Mean (Level 2, LTP, Group 4): 39.84% | BV/TV, Median (Level 2, LTP, Group 4): 38.48% | Cart.Ar, Mean (Level 2, LTP, Group 4): 1.20 mm2 | Cart.Ar, Median (Level 2, LTP, Group 4): 1.00 mm2 | Cart.Bd, Mean (Level 2, LTP, Group 4): 4.73 mm | Cart.Bd, Median (Level 2, LTP, Group 4): 4.37 mm | Cart.Pm, Mean (Level 2, LTP, Group 4): 5.10 mm | Cart.Pm, Median (Level 2, LTP, Group 4): 4.58 mm | Cart.Wi, Mean (Level 2, LTP, Group 4): 263.50 µm | Cart.Wi, Median (Level 2, LTP, Group 4): 255.71 µm | Ophte.Ar, Mean (Level 2, LTP, Group 4): 1.37 mm2 | Ophte.Ar, Median (Level 2, LTP, Group 4): 1.37 mm2 | SCB.Wi, Mean (Level 2, LTP, Group 4): 559.05 µm | SCB.Wi, Median (Level 2, LTP, Group 4): 594.94 µm | Tb.N, Mean (Level 2, LTP, Group 4): 2.47 1/mm | Tb.N, Median (Level 2, LTP, Group 4): 2.50 1/mm | Tb.Sp, Mean (Level 2, LTP, Group 4): 250.77 µm | Tb.Sp, Median (Level 2, LTP, Group 4): 246.02 µm | Tb.Th, Mean (Level 2, LTP, Group 4): 161.80 µm | Tb.Th, Median (Level 2, LTP, Group 4): 153.89 µm | BV/TV, Mean (Level 2, MFC, Group 3): 50.84% | BV/TV, Median (Level 2, MFC, Group 3): 46.53% | Cart.Ar, Mean [1]: 1.47 mm2 | Cart.Ar, Median [1]: 1.46 mm2 | Cart.Bd, Mean [1]: 6.28 mm | Cart.Bd, Median [1]: 6.09 mm | Cart.Pm, Mean [1]: 6.91 mm | Cart.Pm, Median [1]: 6.73 mm | Cart.Wi, Mean [1]: 223.23 µm | Cart.Wi, Median [1]: 234.59 µm | Ophte.Ar, Mean [1]: 2.89 mm2 | Ophte.Ar, Median [1]: 3.00 mm2 | SCB.Wi, Mean [1]: 694.43 µm | SCB.Wi, Median [1]: 608.27 µm | Tb.N, Mean [1]: 2.80 1/mm | Tb.N, Median [1]: 2.86 1/mm | Tb.Sp, Mean [1]: 174.68 µm | Tb.Sp, Median [1]: 185.17 µm | Tb.Th, Mean [1]: 189.67 µm | Tb.Th, Median [1]: 161.11 µm | BV/TV, Mean (Level 2, MFC, Group 4): 43.61% | BV/TV, Median (Level 2, MFC, Group 4): 41.52% | Cart.Ar, Mean [2]: 1.41 mm2 | Cart.Ar, Median [2]: 1.41 mm2 | Cart.Bd, Mean [2]: 6.12 mm | Cart.Bd, Median [2]: 6.18 mm | Cart.Pm, Mean [2]: 6.67 mm | Cart.Pm, Median [2]: 6.55 mm | Cart.Wi, Mean [2]: 222.96 µm | Cart.Wi, Median [2]: 218.64 µm | Ophte.Ar, Mean [2]: 2.78 mm2 | Ophte.Ar, Median [2]: 2.43 mm2 | SCB.Wi, Mean [2]: 570.45 µm | SCB.Wi, Median [2]: 510.39 µm | Tb.N, Mean [2]: 3.01 1/mm | Tb.N, Median [2]: 3.07 1/mm | Tb.Sp, Mean [2]: 189.22 µm | Tb.Sp, Median [2]: 197.91 µm | Tb.Th, Mean [2]: 144.65 µm | Tb.Th, Median [2]: 140.49 µm | BV/TV, Mean [3]: 39.18% | BV/TV, Median [3]: 39.13% | Cart.Ar, Mean [3]: 0.74 mm2 | Cart.Ar, Median [3]: 0.67 mm2 | Cart.Bd, Mean [3]: 2.32 mm | Cart.Bd, Median [3]: 2.31 mm | Cart.Pm, Mean [3]: 2.43 mm | Cart.Pm, Median [3]: 2.27 mm | Cart.Wi, Mean [3]: 312.01 µm | Cart.Wi, Median [3]: 270.73 µm | Ophte.Ar, Mean [3]: 5.73 mm2 | Ophte.Ar, Median [3]: 3.43 mm2 | SCB.Wi, Mean [3]: 747.49 µm | SCB.Wi, Median [3]: 739.43 µm | Tb.N, Mean [3]: 2.37 1/mm | Tb.N, Median [3]: 2.27 1/mm | Tb.Sp, Mean [3]: 257.90 µm | Tb.Sp, Median [3]: 251.22 µm | Tb.Th, Mean [3]: 166.79 µm | Tb.Th, Median [3]: 176.63 µm | BV/TV, Mean [4]: 33.87% | BV/TV, Median [4]: 33.99% | Cart.Ar, Mean [4]: 1.78 mm2 | Cart.Ar, Median [4]: 0.71 mm2 | Cart.Bd, Mean [4]: 2.50 mm | Cart.Bd, Median [4]: 2.18 mm | Cart.Pm, Mean [4]: 2.70 mm | Cart.Pm, Median [4]: 2.14 mm | Cart.Wi, Mean [4]: 282.89 µm | Cart.Wi, Median [4]: 257.34 µm | Ophte.Ar, Mean [4]: 10.32 mm2 | Ophte.Ar, Median [4]: 6.59 mm2 | SCB.Wi, Mean [4]: 575.52 µm | SCB.Wi, Median [4]: 691.04 µm | Tb.N, Mean [4]: 2.15 1/mm | Tb.N, Median [4]: 1.97 1/mm | Tb.Sp, Mean [4]: 317.92 µm | Tb.Sp, Median [4]: 313.76 µm | Tb.Th, Mean [4]: 160.02 µm | Tb.Th, Median [4]: 151.52 µm
